# Assay results taken from ChEMBL document CHEMBL1132520, “Antimalarial activity of 3-hydroxyalkyl-2-methylene-propionic acid derivatives” (1999).
# Activity calls are given as the source filed them. The calls are words filed in the database; no cut-off is given here.
# Columns and labels:
# [1] = test system: Plasmodium falciparum; assay: In vitro inhibition of Plasmodium falciparum at 5 uM/well dose at 72 hrs in total parasite growth assay; type: functional
# [2] = test system: Plasmodium falciparum; assay: In vitro antimalarial activity for Plasmodium falciparum at 50 uM/well dose at 24 hrs in Schizont maturation assay; type: functional
# [3] = test system: Plasmodium falciparum; assay: In vitro antimalarial activity for Plasmodium falciparum at 10 uM/well dose at 24 hrs in Schizont maturation assay; type: functional
# [4] = test system: Plasmodium falciparum; assay: In vitro inhibition of Plasmodium falciparum at 25 uM/well dose at 72 hrs in total parasite growth assay; type: functional
# [5] = test system: Plasmodium falciparum; assay: In vitro antimalarial activity for Plasmodium falciparum at 1 uM/well dose at 24 hrs in Schizont maturation assay; type: functional
# [6] = test system: Plasmodium falciparum; assay: In vitro inhibition of Plasmodium falciparum at 2.5 uM/well dose at 72 hrs in total parasite growth assay; type: functional
# [7] = test system: Plasmodium falciparum; assay: In vitro antimalarial activity for Plasmodium falciparum at 500 uM/well dose at 24 hrs in Schizont maturation assay; type: functional
# [8] = test system: Plasmodium falciparum; assay: In vitro antimalarial activity for Plasmodium falciparum at 5 uM/well dose at 24 hrs in Schizont maturation assay; type: functional
# [9] = test system: Plasmodium falciparum; assay: In vitro inhibition of Plasmodium falciparum at 100 uM/well dose at 72 hrs in total parasite growth assay; type: functional
# [10] = test system: Plasmodium falciparum; assay: In vitro inhibition of Plasmodium falciparum at 10 uM/well dose at 72 hrs in total parasite growth assay; type: functional
# [11] = test system: Plasmodium falciparum; assay: In vitro antimalarial activity for Plasmodium falciparum at 100 uM/well dose at 24 hrs in Schizont maturation assay; type: functional
# [12] = test system: Plasmodium falciparum; assay: In vitro inhibition of Plasmodium falciparum at 1.0 uM/well dose at 72 hrs in total parasite growth assay; type: functional
# [13] = test system: Mus musculus; assay: Anti-malarial activity against Plasmodium berghei evaluated in terms of mean survival time for mice (Mus musculus) at a dose of 20 mg/kg; type: functional
# [14] = test system: Mus musculus; assay: Antimalarial activity against Plasmodium berghei evaluated in terms of mean survival time for mice (Mus musculus) at a dose of 80 mg/kg; type: functional
# [15] = test system: Plasmodium falciparum; assay: In vitro antimalarial activity for Plasmodium falciparum at 20 uM/well dose at 24 hrs in Schizont maturation assay; type: functional
# [16] = test system: Plasmodium falciparum; assay: In vitro inhibition of Plasmodium falciparum at 0.25 uM/well dose at 72 hrs in total parasite growth assay; type: functional
# [17] = test system: Plasmodium falciparum; assay: In vitro antimalarial activity for Plasmodium falciparum at 2.5 uM/well dose at 24 hrs in Schizont maturation assay; type: functional
# [18] = test system: Plasmodium falciparum; assay: In vitro antimalarial activity for chloroquine-resistant Plasmodium falciparum at 100 uM/well dose at 24 hrs in Schizont maturation assay; type: functional
# [19] = test system: Plasmodium falciparum; assay: In vitro inhibition of Plasmodium falciparum at 0.5 uM/well dose at 72 hrs in total parasite growth assay; type: functional
# [20] = test system: Plasmodium falciparum; assay: In vitro antimalarial activity for chloroquine-resistant Plasmodium falciparum at 5 uM/well dose at 24 hrs in Schizont maturation assay; type: functional
# [21] = test system: Plasmodium falciparum; assay: In vitro antimalarial activity for chloroquine-resistant Plasmodium falciparum at 0.5 uM/well dose at 24 hrs in Schizont maturation assay; type: functional
# [22] = test system: Plasmodium falciparum; assay: In vitro antimalarial activity for chloroquine-resistant Plasmodium falciparum at 20 uM/well dose at 24 hrs in Schizont maturation assay; type: functional
# [23] = test system: Plasmodium falciparum; assay: In vitro inhibition of chloroquine-resistant Plasmodium falciparum at 1.0 uM/well dose at 72 hrs in total parasite growth assay; type: functional
# [24] = test system: Plasmodium falciparum; assay: In vitro inhibition of chloroquine-resistant Plasmodium falciparum at 0.25 uM/well dose at 72 hrs in total parasite growth assay; type: functional
# [25] = test system: Plasmodium falciparum; assay: In vitro antimalarial activity for Plasmodium falciparum at 0.50 uM/well dose at 24 hrs in Schizont maturation assay; type: functional
# [26] = test system: Plasmodium falciparum; assay: In vitro antimalarial activity for chloroquine-resistant Plasmodium falciparum at 10 uM/well dose at 24 hrs in Schizont maturation assay; type: functional
# [27] = test system: Plasmodium falciparum; assay: In vitro antimalarial activity for chloroquine-resistant Plasmodium falciparum at 1 uM/well dose at 24 hrs in Schizont maturation assay; type: functional
# [28] = test system: Mus musculus; assay: Antimalarial activity against Plasmodium berghei evaluated in terms of mean survival time for mice (Mus musculus) at a dose of 40 mg/kg; type: functional
# [29] = test system: Plasmodium falciparum; assay: In vitro inhibition of Plasmodium falciparum at 50 uM/well dose at 72 hrs in total parasite growth assay; type: functional
# [30] = test system: Plasmodium falciparum; assay: In vitro antimalarial activity for chloroquine-resistant Plasmodium falciparum at 0.10 uM/well dose at 24 hrs in Schizont maturation assay; type: functional
# [31] = test system: Plasmodium falciparum; assay: In vitro antimalarial activity for Plasmodium falciparum at 0.25 uM/well dose at 24 hrs in Schizont maturation assay; type: functional
# [32] = test system: Mus musculus; assay: In vivo anti-malarial activity against Plasmodium berghei in mice (Mus musculus) at a dose of 160 mg/kg; Active; type: functional, organism-based; parameters: dose 160 mg/kg
# [33] = test system: Plasmodium falciparum; assay: In vitro antimalarial activity for chloroquine-resistant Plasmodium falciparum at 0.25 uM/well dose at 24 hrs in Schizont maturation assay; type: functional
# [34] = test system: Mus musculus; assay: Antimalarial activity against Plasmodium berghei evaluated in terms of mean survival time for mice (Mus musculus) at a dose of 160 mg/kg; type: functional
# [35] = test system: Plasmodium falciparum; assay: In vitro antimalarial activity for chloroquine-resistant Plasmodium falciparum at 50 uM/well dose at 24 hrs in Schizont maturation assay; type: functional
# [36] = test system: Plasmodium falciparum; assay: In vitro inhibition of Plasmodium falciparum at 20 uM/well dose at 72 hrs in total parasite growth assay; type: functional
# [37] = test system: Plasmodium falciparum; assay: In vitro inhibition of chloroquine-resistant Plasmodium falciparum at 0.5 uM/well dose at 72 hrs in total parasite growth assay; type: functional
# [38] = test system: Plasmodium falciparum; assay: In vitro antimalarial activity for Plasmodium falciparum at 0.10 uM/well dose at 24 hrs in Schizont maturation assay; type: functional
# [39] = test system: Plasmodium falciparum; assay: In vitro antimalarial activity for chloroquine-resistant Plasmodium falciparum at 2.5 uM/well dose at 24 hrs in Schizont maturation assay; type: functional
# [40] = test system: Mus musculus; assay: In vivo antimalarial activity against Plasmodium berghei in mice (Mus musculus); Inactive; type: functional, organism-based
# [41] = test system: Mus musculus; assay: In vivo anti-malarial activity against Plasmodium berghei in mice (Mus musculus) at a dose of 80 mg/kg; Active; type: functional, organism-based; parameters: dose 80 mg/kg
# [42] = test system: Plasmodium falciparum; assay: In vitro inhibition of Plasmodium falciparum at 20 uM/well dose at 72 hrs in total parasite growth assay; Not determined; type: functional
Compound,PGI [1],inhibition at 50 µM [2],inhibition at 10 µM [3],PGI [4],inhibition at 1 µM [5],PGI [6],inhibition at 5 µM [8],PGI [9],PGI [10],inhibition at 100 µM [11],PGI [12],Mean survival time [13],Mean survival time [14],PGI [16],PGI [19],inhibition at 0.5 µM [25],Mean survival time [28],inhibition at 0.25 µM [31],Mean survival time [34],inhibition at 0.1 µM [38],other results
C=C(CCC(C)=O)C(C)=O,88.6%,100%,100%,100%,52.6%,65.7%,100%,100%,100%,100%,8.6%,–,–,–,–,–,–,–,–,–,inhibition at 500 µM [7]: 100%
C=C(C#N)C(O)c1cc(OC)c(OC)c(OC)c1 (configuration not stated),100%,100%,100%,100%,64%,100%,82.4%,100%,100%,100%,94%,6 days,10.4 days,73%,86%,42.4%,7.6 days,30%,12.4 days,0%,inhibition at 20 µM [15]: 100%; inhibition at 2.5 µM [17]: 76.5%; inhibition at 100 µM [18]: 100%; inhibition at 5 µM [20]: 81%; inhibition at 0.5 µM [21]: 48.6%; inhibition at 500 µM [7]: 100%; inhibition at 20 µM [22]: 100%; PGI [23]: 90%; PGI [24]: 70%; inhibition at 10 µM [26]: 100%; inhibition at 1 µM [27]: 65%; PGI [29]: 100%; inhibition at 0.1 µM [30]: 4.2%; Activity [32]: Active; inhibition at 0.25 µM [33]: 30%; inhibition at 50 µM [35]: 100%; PGI [36]: 100%; PGI [37]: 81%; inhibition at 2.5 µM [39]: 69%
C=C(C#N)C(O)/C=C(\C)CCC=C(C)C (configuration not stated),–,–,–,–,–,–,–,–,–,–,–,7.3 days,9.8 days,–,–,–,8.6 days,–,11.6 days,–,Activity [40]: inactive
C=C(C(=O)OC)C(O)/C=C(\C)CCC=C(C)C (configuration not stated),–,–,–,–,–,–,–,–,–,–,–,7.2 days,9.6 days,–,–,–,8.4 days,–,11.4 days,–,Activity [40]: inactive
C=C(C(=O)OC)C(O)c1ccco1 (configuration not stated),85.7%,–,–,100%,–,42.8%,–,100%,98%,–,20%,–,–,0%,–,–,–,–,–,–,–
C=C(C#N)C(O)c1ccc([N+](=O)[O-])cc1 (configuration not stated),100%,100%,100%,100%,75.2%,100%,100%,100%,100%,100%,100%,9.4 days,12.8 days,83%,92%,68%,11.8 days,56.4%,14.4 days,41.2%,inhibition at 20 µM [15]: 100%; inhibition at 2.5 µM [17]: 84%; inhibition at 100 µM [18]: 100%; inhibition at 5 µM [20]: 100%; Activity [41]: Active; inhibition at 0.5 µM [21]: 75%; inhibition at 500 µM [7]: 100%; inhibition at 20 µM [22]: 100%; PGI [23]: 94%; PGI [24]: 73%; inhibition at 10 µM [26]: 100%; inhibition at 1 µM [27]: 86%; PGI [29]: 100%; inhibition at 0.1 µM [30]: 47.7%; Activity [32]: Active; inhibition at 0.25 µM [33]: 58%; inhibition at 50 µM [35]: 100%; PGI [36]: 100%; PGI [37]: 82%; inhibition at 2.5 µM [39]: 100%
C=C(C#N)C(O)c1ccco1 (configuration not stated),68.6%,–,–,84%,–,40%,–,100%,79%,–,31.4%,–,–,–,14%,–,–,–,–,–,–
C=C(C(=O)OC)C(O)c1ccc([N+](=O)[O-])cc1 (configuration not stated),–,52.6%,44.7%,–,2.6%,–,18.4%,–,–,81.6%,–,–,–,–,–,–,–,–,–,–,inhibition at 500 µM [7]: 100%
C=C(C#N)C(OCCC#N)c1ccc2c(c1)OCO2 (configuration not stated),52.5%,100%,93%,–,43%,40%,64%,100%,90%,100%,25%,7.8 days,11.4 days,0%,10%,36%,9.2 days,6%,14.2 days,0%,inhibition at 20 µM [15]: 100%; inhibition at 2.5 µM [17]: 57%; PGI [29]: 100%; Activity [32]: Active; PGI [36]: 95%
C=C(C#N)C(O)c1ccc(OC)c(OC)c1 (configuration not stated),–,71%,42%,–,5.26%,–,21%,–,–,100%,–,–,–,–,–,0%,–,0%,–,0%,inhibition at 500 µM [7]: 100%
C=C(C(=O)OC)C(O)c1cccnc1 (configuration not stated),92.5%,100%,100%,–,43%,75%,100%,100%,100%,100%,50%,–,–,5%,25%,29%,–,5%,–,0%,inhibition at 20 µM [15]: 100%; inhibition at 2.5 µM [17]: 64%; PGI [42]: 100%; PGI [29]: 100%
C=C(C(=O)OC)C(O)c1ccccc1 (configuration not stated),100%,100%,100%,–,43%,62.5%,93%,100%,100%,100%,40%,6 days,10.2 days,0%,7.5%,7%,7 days,0%,12 days,0%,inhibition at 20 µM [15]: 100%; inhibition at 2.5 µM [17]: 64%; PGI [42]: 100%; PGI [29]: 100%; Activity [40]: inactive
